# “And” between values parts separate entries of the source, which are not always exact repeats. Equal entries are not always repeated.
# Columns and labels:
# Format in all cases: cell-based, influenza virus A/PR/8/34
# [1] = tested on: PA-mutant G81T influenza virus polymerase
# [2] = tested on: PA-mutant R124Q influenza virus polymerase
# [3] = tested on: PA-mutant V122T influenza virus polymerase
# [4] = tested on: PA-mutant L42T influenza virus polymerase
# [5] = tested on: PA-mutant I120T influenza virus polymerase
# [6] = tested on: PA-I38T mutant influenza virus polymerase
# [7] = tested on: PA-mutant R84L influenza virus polymerase
# [8] = tested on: PA-mutant H41A influenza virus polymerase
# [9] = tested on: PA-mutant T20A influenza virus polymerase
# [10] = tested on: PA-mutant K137L influenza virus polymerase
Compound,Fold increase in EC50 compared to wild-type [1],Fold increase in EC50 compared to wild-type [2],Fold increase in EC50 compared to wild-type [3],Fold increase in EC50 compared to wild-type [4],Fold increase in EC50 compared to wild-type [5],Fold increase in EC50 compared to wild-type [6],Fold increase in EC50 compared to wild-type [7],Fold increase in EC50 compared to wild-type [8],Fold increase in EC50 compared to wild-type [9],Fold increase in EC50 compared to wild-type [10]
baloxavir acid [BXA],0.2 fold,0.5 fold,0.7 fold,1.1 fold,0.7 fold,65 fold,0.2 fold,0.2 fold,0.3 fold,–
"O=C1c2c(ccc(O)c2O)CN1Cc1ccc(O)cc1 [Compound 17, 2-(4-hydroxybenzyl)-6,7-dihydroxy-isoindolin-1-one]",6.1 fold,5.0 fold,4.2 fold,2.5 fold,6.1 fold,–,4 fold and 3.8 fold,4.9 fold,–,4.5 fold
"NC(=O)c1ncn([C@@H]2O[C@H](CO)[C@@H](O)[C@H]2O)n1 [Ribavirin, ribavirin]",0.9 fold,1.1 fold,1.2 fold,0.9 fold,1.0 fold,–,1.1 fold,0.8 fold,1.0 fold,1.3 fold

# Source: PMC8838982 (Bioorganic chemistry, 2021)
